US8741843B2, “Compositions and methods for inducing angiogenesis” (priority 2006, dated 2014)
Entries after “also recorded” stand apart in the source; their conditions may differ.

Key:
[1] = system: endothelial cells; test: CoCl2-induced apoptosis of endothelial cells (Annexin-FITC/PI FACS); assay type: cell-based, human; settings: 24 hours CoCl2 treatment, normoxia about 27%
Method: FIGS. 33a-f are representative FACS analyses depicting a specific inhibition of hypoxia-induced apoptosis of endothelial cells by ADOPep1. Endothelial cells in Petri dishes were incubated for 24 hours with 5% FCS in supplement-free endothelial cell growth medium under normoxia (FIGS. 33a and d), exposed to 24 hours hypoxia (Figures c and f) or incubated under normoxia with 100 micromolar per 100,000 cells CoCl2 (FIGS. 33b and e), in the absence (FIGS. 33a-c) or presence (FIGS. 33d-f) of 10 ng/ml Adopep1 peptide (for 24 hours). Cells were trypsinized and immediately re-suspended in PBS with 5% FCS and 0.1% Na-azide. Samples containing 100,000 cells were tested for apoptosis using the Annexin-FITC (X axis) and propidium iodide (Y axis) kit (Bender Medsystems, Vienna, Austria), according to manufacturer's instructions. Results were analyzed by FACScan (Beckton Dickinson).
FIG. 34 is a histogram depicting the FACS results of the experiments described in FIGS. 33a-f. Data represents average±SD of 2 experiments.

[2] = system: GRP78 receptor on endothelial cells; test: Competitive binding of ADOPeps to GRP78 (anti-GRP78 antibody ELISA on endothelial cells); design: species or system human; settings: summary of 4 experiments
Method: FIG. 19 is a graph depicting inhibition of binding (in percentages) of anti-GRP78 antibody to endothelial cells by increasing concentrations of ADOPep1, 2, and 3 peptides. Endothelial cells were incubated for 2 hours with increasing concentrations of ADOPeps, following which the cells were incubated for another 1 hour with the 2 μg/ml of anti-GRP78 antibody and the amount of bound antibody on EC was detected using an ELISA reader.
Endothelial cells (20,000 per well) were seeded in 96 well plates for 24 hours in the presence of the complete medium. Plates were washed with PBS over night and rehydrated with PBS, 0.1% Na Azide and 5% FCS. ADOPep1, ADOPep2 and ADOPep3 were added to washed plates for 2 hours at room temperature at concentrations of 0.01, 0.1 and 1 microgram per ml. Anti-GRP78 antibody (goat polyclona IgG, Santa Cruz Biotechnology, Calif., USA) was added to the plates for 1 hour at room temperature at a concentration of 2 micrograms/ml per well. After washing, bound anti-GRP78 antibody was detected by incubation with anti-goat IgG Peroxidase conjugated (Jackson Immuneresearch Laboratories, PA, USA). After 5 washes with PBS-0.1% Tween 20, 100 μl/well of TMB+ Substrate-Chromogen (DAKOCytomation, CA, USA) was added for a maximum of 30 minutes. Reaction was stopped with 1N HCl. Color developed was determined by an ELISA reader at 450 nm.

[3] = system: ERK½; test: ERK½ phosphorylation in endothelial cells under hypoxia (Western blot, densitometry); assay type: cell-based, human; settings: for ERK½ phosphorylation (in words): endothelial cells under hypoxia, 10 ng/ml
Method: FIGS. 30a-b are Western blot analyses depicting induction of phosphorylation of ERK by ADoPep1 and Motif A. Endothelial cells under starvation conditions and 5 hours hypoxia were incubated for 5 (lanes 2 and 6), 20 (lanes 3 and 7), 30 (lanes 4 and 8) and 60 (lanes 5 and 9) minutes with 10 ng/ml ADoPep1 (Lanes 2-5) or Motif A (lanes 6-9) peptides or remained under hypoxia without a further incubation with a peptide (lane 1). After incubation, lysates were prepared, subject to SDS-PAGE and blotting on a nitrocellulose membrane. Western Blot analysis was performed using anti-Phospho ERK½ antibody. […] FIG. 30a—Experiment 1; FIG. 30b—Experiment 2. The percent adjusted volume as determined by a densitometric analysis software to compare net band densities was as follows: FIG. 30a, lane 1-4.5, lane 2-9.3, lane 3-13.7, lane 4-13.3, lane 5-11.2, lane 6-10.7, lane 7-12.4, lane 8-12.3 and lane 9-12.4; FIG. 30b, lane 1-4.21, lane 2-12.4, lane 3-12.5, lane 4-14.8, lane 5-10.9, lane 6-14.9, lane 7-9.8, lane 8-12.7 and lane 9-7.8.
FIG. 31 is a Western blot analysis depicting the level of phosphorylated ERK (pERK) in endothelial cells activated for 20 minutes with ADOPep1 and motif A and inhibited by pERK-inhibitor peptide. Endothelial cells (from cord 1) under starvation conditions and 5 hours hypoxia were incubated with 10 ng/ml ADOPep1 (lanes 3 and 4) or motif A (lanes 1 and 2) peptides in the presence (lanes 2 and 4) or absence (lanes 1 and 3) of p-ERK-inhibitor peptide (Santa Cruz). For control, the endothelial cells under starvation conditions and 5 hours hypoxia (lane 5) were also incubated with the p-ERK-inhibitor peptide (lane 6). […] The percent adjusted volume as determined by a densitometric analysis software to compare net band densities was as follows: lane 1-19, lane 2-14, lane 3-14, lane 4-8.8, lane 5-11, lane 6-2.1.
FIGS. 32a-b are Western blot analyses depicting the effect of ADOPeps on the level of phosphorylated ERK. Endothelial cells (EC) from cord 1 (FIG. 32a) or cord 2 (FIG. 32b) under hypoxia (5 hours) were incubated for 20 or 30 minutes with 10 ng/ml of AdoPep1, AdoPep2 and AdoPep3 or remained untreated (i.e., under hypoxia without any peptide). Western Blot analyses of samples cell lysates were performed with anti Phospho ERK antibody on nitrocellulose membranes. […] The percent adjusted volume as determined by a densitometric analysis software to compare net band densities was as follows: FIG. 32a, lane 1-11, lane 2-13, lane 3-11, lane 4-5, lane 5-11, lane 6-13, lane 7-17, lane 8-16.7; FIG. 32b, lane 1-17, lane 2-22, lane 3-19, lane 4-7, lane 5-8, lane 6-13, lane 7-14, lane 8-1.

[4] = system: endothelial cells (HUVEC); test: Proliferation of endothelial cells under hypoxia ([H3]Thymidine incorporation); assay type: cell-based, human; settings: 24 hours starvation, 10 ng/ml
Method: FIG. 5 is a graph depicting cell proliferation as a function of ADOPeps' concentration. Proliferation of endothelial cells (EC) under hypoxia conditions was measured by [H^3]Thymidine incorporation. Endothelial cells (12,000/well) in minimal growth medium were incubated for 24 hours in the presence of 1, 10 and 100 ng/ml of ADOPep1 (SEQ ID NO:2; red diamonds), 2 (SEQ ID NO:3; blue squares) and 3 (SEQ ID NO:4; green triangles) peptides.
HUVEC from passage 3 were used for proliferation experiments. Endothelial cells (15,000 cells/well) were seeded on 24-wells in the presence of endothelial cell growth medium (Promocell, Heidelberg, Germany) with supplements and incubated for 24 hours. After then, cells were exposed to 24 hours starvation in a medium free of supplements. ADOPeps were added at concentrations of 1, 10 and 100 ng/ml for 24 hours under hypoxic conditions. 2 μCi/well of Thymidine (SIGMA, Rehovot Israel) were added or over night incubation followed by 3 washes with PBS before harvesting at 37° C. with 300 μl/well of 0.5 M NaOH. Cell lysates were transferred to scintillation vials with 2 ml scintillation liquid Ultima Gold (Packard Bioscience, Meriden, USA) and counted in a β counter. Results were obtained as counts per minute (cpm).

[5] = system: endothelial cells; test: Tube formation of endothelial cells on Cultrex Basement Membrane Extract; assay type: cell-based, human; settings: 10 ng/ml, 18 hours, starvation and normoxic conditions
Method: FIG. 27 is a graph depicting induction of tube formation using AdoPep1 and Motif A (SEQ ID NO:7) but not the scrambled sROY peptide. Endothelial cells were incubated in media without supplements for 24 hours, and 50,000 cells were then transferred in 500 μl medium to 24-well plates precoated with 250 μl Cultrex Basement Membrane Extract (with reduced growth factors) (R&D Systems, Minneapolis, Minn., USA). AdoPep1, Motif A and scrambled sROY peptides were added at an optimal concentration of 10 ng/ml (based on preliminary findings), and the slides were examined by light microscopy after 18 hours incubation. The results represent average±SD of three experiments using 3 different cords. The length of the network of connected cells (tube formation) was measured in micrometers in 5 different areas of each well using Image-Pro Plus Image software (Media Cybernetics, Silver Spring, Md., USA).

[6] = FIG. 32a cord 1, 10 ng/ml, 20 minutes, untreated 11, 13
[7] = FIG. 32a cord 1, 10 ng/ml, 30 minutes, untreated 11, 13
[8] = FIG. 32b cord 2, 10 ng/ml, 20 minutes, untreated 17
[9] = FIG. 32b cord 2, 10 ng/ml, 30 minutes, untreated 8

`[Cl][Co][Cl]` [CoCl2, Cobalt-Chloride, reference compound] showed a level of apoptosis [1] of about 67%.
For “AVTLENFLHWRR [ADOPep3, ADAM15 derived peptide]”, the “inhibition of binding of anti-GRP78 antibody to EC (in words)” value (from here on “inhibition”) [2] was “some degree of inhibition”, the “percent adjusted volume of phospho ERK band” value (“percent adjusted volume” for short) [3, 6] was 11% and the “percent adjusted volume” value [3, 7] was 5%. The “percent adjusted volume” value [3, 8] was 7%, the “percent adjusted volume” value [3, 9] was 1% and the “ERK½ phosphorylation (in words)” value [3] was “had not effect on ERK½ phosphorylation”.
With “ENFLHWRRAHLL [ADOPep2, ADAM15 derived peptide]” the “proliferation of endothelial cells” value [4] was “capable of inducing proliferation of EC”, the “inhibition” value [2] was “some degree of inhibition” and the “percent adjusted volume” value [3, 6] was 11%. The “percent adjusted volume” value [3, 7] was 13%, the “percent adjusted volume” value [3, 8] was 19% and the “percent adjusted volume” value [3, 9] was 14%. For the same compound, the “ERK½ phosphorylation (in words)” value [3] was “induced ERK½ phosphorylation; also recorded: increase in ERK½ phosphorylation”.
“RYHLIPRGWDHS [sRoY, scrambled control peptide, reference compound]” was tested, and the “tube formation (length of the network of connected cells)” value ([5]; listed as scrambled sROY) was “did not induced tube formation”, the “tube formation (length of the network of connected cells)” value ([5]; listed as scrambled sROY peptide) was “no effect on tube formation” and the “inhibition” value [2] was “not effective; also recorded: no specific inhibition effect”.
